Measured values from patent publication US20220351806A1, “Biomarker Panels for Guiding Dysregulated Host Response Therapy” (Endpoint Health Inc., priority 2019, published 2022).

Test system: burn-induced SIRS patients
Experiment: Burn-Induced SIRS trial survival analysis, hydrocortisone vs placebo, by patient subtype classifier
Format: in vivo, human
Parameters: lower mortality in the hydrocortisone group when compared to the placebo group / Mortality reduction / Mortality rate: concentration or dose not given beside the values
Conditions: for Alive / Dead / Mortality rate / Survival rate: Hydro arm; for Alive / Dead / Mortality rate / Survival rate / Mortality Reduction Group / Mortality reduction: day 28; for Mortality Reduction Group: Hydro vs Placebo
Source text: The test expression data from each trial were normalized by the platform normalization matrix described above^13 so that the test data were more consistent with the training data. The classifiers (e.g., the Full Model, the SS Model, the S Model, and the P Model) were then applied to the normalized data such that the patients were classified into A, B, and C subtypes. […] Therefore, each sample in the target samples was normalized independently with the normalization matrix of the sample array platform.
Survival and mortality rates were calculated at day 28 because survival and mortality labels at other time points were not available. […] Binomial and Chi-squared with continuity correction tests were used to test for the significance of these differences.
The chi-squared p-value was calculated with continuity correction when computed for 2-by-2 tables.

[1] = Full Model, Total (all subtypes)

In the case of `C[C@]12CCC(=O)C=C1CC[C@@H]1[C@@H]2[C@@H](O)C[C@@]2(C)[C@H]1CC[C@]2(O)C(=O)CO` [Hydro, hydrocortisone], the Alive [1] is reported as 9, the Dead [1] is reported as 6 and the Mortality rate [1] is reported as 40.0%. The Survival rate [1] was 60.0%, the “Mortality Reduction Group” value [1] was “Placebo” and the Mortality reduction (Full Model, Total (all subtypes), reduction group Placebo) was 66.7%. The Alive (Full Model, subtype A) was 2, the Dead (Full Model, subtype A) was 1 and the Survival rate (Full Model, subtype A) was 66.7%. For the same compound, the “Mortality Reduction Group” value (Full Model, subtype A) was “Placebo”, the Mortality reduction (Full Model, subtype A, reduction group Placebo) was 100.0% and the Alive (Full Model, subtype B) was 6. The Dead (Full Model, subtype B) was 1, the Mortality rate (Full Model, subtype B) was 14.3% and the Survival rate (Full Model, subtype B) was 85.7%. The “Mortality Reduction Group” value (Full Model, subtype B) was “Hydro”, the Mortality reduction (Full Model, subtype B, reduction group Hydro) was 64.3% and the Alive (Full Model, subtype C) was 1. It also gave a Dead (Full Model, subtype C) of 4, a Mortality rate (Full Model, subtype C) of 80.0% and a Survival rate (Full Model, subtype C) of 20.0%. The “Mortality Reduction Group” value (Full Model, subtype C) was “Placebo”, the Mortality reduction (Full Model, subtype C, reduction group Placebo) was 100.0% and the Alive (Full Model, subtypes CA) was 3. For the same compound, the Dead (Full Model, subtypes CA) was 5, the Mortality rate (Full Model, subtypes CA) was 62.5% and the Survival rate (Full Model, subtypes CA) was 37.5%. The “Mortality Reduction Group” value (Full Model, subtypes CA) was “Placebo”, the Mortality reduction (Full Model, subtypes CA, reduction group Placebo) was 100.0% and the Alive (P Model, Total (all subtypes)) was 9. The Dead (P Model, Total (all subtypes)) was 6, the Mortality rate (P Model, Total (all subtypes)) was 40.0% and the Survival rate (P Model, Total (all subtypes)) was 60.0%. For the same compound, the “Mortality Reduction Group” value (P Model, Total (all subtypes)) was “Placebo”, the Mortality reduction (P Model, Total (all subtypes), reduction group Placebo) was 66.7% and the Alive (P Model, subtype A) was 4. It also gave a Dead (P Model, subtype A) of 1, a Mortality rate (P Model, subtype A) of 20.0% and a Survival rate (P Model, subtype A) of 80.0%. For the same compound, the “Mortality Reduction Group” value (P Model, subtype A) was “Placebo”, the Mortality reduction (P Model, subtype A, reduction group Placebo) was 100.0% and the Alive (P Model, subtype B) was 5. The Dead (P Model, subtype B) was 1, the Survival rate (P Model, subtype B) was 83.3% and the “Mortality Reduction Group” value (P Model, subtype B) was “Hydro”. For the same compound, the Mortality reduction (P Model, subtype B, reduction group Hydro) was 50.0%, the Alive (P Model, subtype C) was 0 and the Dead (P Model, subtype C) was 4. For the same compound, the Mortality rate (P Model, subtype C) was 100.0%, the Survival rate (P Model, subtype C) was 0.0% and the “Mortality Reduction Group” value (P Model, subtype C) was “Placebo”. It also gave a Mortality reduction (P Model, subtype C, reduction group Placebo) of 100.0%, an Alive (P Model, subtypes CA) of 4 and a Dead (P Model, subtypes CA) of 5. The Mortality rate (P Model, subtypes CA) was 55.6%, the Survival rate (P Model, subtypes CA) was 44.4% and the “Mortality Reduction Group” value (P Model, subtypes CA) was “Placebo”. It also gave a Mortality reduction (P Model, subtypes CA, reduction group Placebo) of 100.0%, an Alive (S Model, Total (all subtypes)) of 9 and a Dead (S Model, Total (all subtypes)) of 6. The Mortality rate (S Model, Total (all subtypes)) was 40.0%, the Survival rate (S Model, Total (all subtypes)) was 60.0% and the “Mortality Reduction Group” value (S Model, Total (all subtypes)) was “Placebo”. The Mortality reduction (S Model, Total (all subtypes), reduction group Placebo) was 66.7%, the Alive (S Model, subtype A) was 3 and the Dead (S Model, subtype A) was 2. For the same compound, the Mortality rate (S Model, subtype A) was 40.0%, the Survival rate (S Model, subtype A) was 60.0% and the “Mortality Reduction Group” value (S Model, subtype A) was “Placebo”. For the same compound, the Mortality reduction (S Model, subtype A, reduction group Placebo) was 58.3%, the Alive (S Model, subtype B) was 6 and the Dead (S Model, subtype B) was 1. The Mortality rate (S Model, subtype B) was 14.3%, the Survival rate (S Model, subtype B) was 85.7% and the “Mortality Reduction Group” value (S Model, subtype B) was “Hydro”. The Mortality reduction (S Model, subtype B, reduction group Hydro) was 28.6%, the Alive (S Model, subtype C) was 0 and the Dead (S Model, subtype C) was 3. The Mortality rate (S Model, subtype C) was 100.0%, the Survival rate (S Model, subtype C) was 0.0% and the “Mortality Reduction Group” value (S Model, subtype C) was “Placebo”. The Mortality reduction (S Model, subtype C, reduction group Placebo) was 100.0%, the Alive (S Model, subtypes CA) was 3 and the Dead (S Model, subtypes CA) was 5. For the same compound, the Mortality rate (S Model, subtypes CA) was 62.5%, the Survival rate (S Model, subtypes CA) was 37.5% and the “Mortality Reduction Group” value (S Model, subtypes CA) was “Placebo”. The Mortality reduction (S Model, subtypes CA, reduction group Placebo) was 84.0%, the “lower mortality in the placebo group when compared to the hydrocortisone therapy group” value (SIRS patients, 28-day, C subtype, Full Model) was 100% and the “lower mortality in the placebo group when compared to the hydrocortisone therapy group” value (SIRS patients, 28-day, C subtype, P Model) was 100%. The “lower mortality in the placebo group when compared to the hydrocortisone therapy group” value (SIRS patients, 28-day, C subtype, S Model) was 100%, the “lower mortality in the placebo group when compared to the hydrocortisone therapy group” value (SIRS patients, 28-day, C subtype, SS Model) was 65% and the “lower mortality in the placebo group when compared to the hydrocortisone therapy group” value (SIRS patients, 28-day, subtype A, Full, S, and P Models) was 100%. For the same compound, the “lower mortality in the hydrocortisone group when compared to the placebo group” value (SIRS patients, 28-day, subtype B, S Model) was 28.6%, the Alive (SS Model, Total (all subtypes)) was 9 and the Dead (SS Model, Total (all subtypes)) was 6. For the same compound, the Mortality rate (SS Model, Total (all subtypes)) was 40.0%, the Survival rate (SS Model, Total (all subtypes)) was 60.0% and the “Mortality Reduction Group” value (SS Model, Total (all subtypes)) was “Placebo”. For the same compound, the Mortality reduction (SS Model, Total (all subtypes), reduction group Placebo) was 66.7%, the Alive (SS Model, subtype A) was 4 and the Dead (SS Model, subtype A) was 2. For the same compound, the Survival rate (SS Model, subtype A) was 66.7%, the “Mortality Reduction Group” value (SS Model, subtype A) was “Placebo” and the Mortality reduction (SS Model, subtype A, reduction group Placebo) was 40.0%. For the same compound, the Alive (SS Model, subtype B) was 2, the Dead (SS Model, subtype B) was 0 and the Mortality rate (SS Model, subtype B) was 0.0%. For the same compound, the Survival rate (SS Model, subtype B) was 100.0%, the “Mortality Reduction Group” value (SS Model, subtype B) was “Placebo” and the Alive (SS Model, subtype C) was 3. It also gave a Dead (SS Model, subtype C) of 4, a Mortality rate (SS Model, subtype C) of 57.1% and a Survival rate (SS Model, subtype C) of 42.9%. The “Mortality Reduction Group” value (SS Model, subtype C) was “Placebo”, the Mortality reduction (SS Model, subtype C, reduction group Placebo) was 65.0% and the Alive (SS Model, subtypes CA) was 7. It also gave a Dead (SS Model, subtypes CA) of 6, a Mortality rate (SS Model, subtypes CA) of 46.2% and a Survival rate (SS Model, subtypes CA) of 53.8%. For the same compound, the “Mortality Reduction Group” value (SS Model, subtypes CA) was “Placebo” and the Mortality reduction (SS Model, subtypes CA, reduction group Placebo) was 56.7%.
